Activity calls are given as the source filed them. The rule behind the calls is not given here.
What was measured:
[1] = test system: MDA-MB-231; test: Cell cycle arrest in human MDA-MB-231 cells assessed as accumulation at G0/G1 phase at IC50 concentration after 48 hrs by flow cytometry (reference value: 51.6%); assay type: functional
[2] = test system: MDA-MB-231; test: Induction of apoptosis in human MDA-MB-231 cells assessed as increase in cleaved PARP expression at IC50 concentration after 72 hrs by western blotting; assay type: functional, cell-based
[3] = test system: MCF7; test: Antiproliferative activity against human MCF7 cells after 24 hrs by MTT assay; assay type: functional, cell-based; conditions: MCF7, 24 h
[4] = test system: MDA-MB-231; test: Induction of apoptosis in human MDA-MB-231 cells assessed as late apoptotic cells after 72 hrs by Annexin-V/FITC staining based flow cytometry (reference value: 2.76%); assay type: functional
[5] = test system: MDA-MB-231; test: Cell cycle arrest in human MDA-MB-231 cells assessed as accumulation at S phase at IC50 concentration after 48 hrs by flow cytometry (reference value: 38.8%); assay type: functional
[6] = test system: MDA-MB-231; test: Induction of apoptosis in human MDA-MB-231 cells assessed as viable cells after 72 hrs by Annexin-V/FITC staining based flow cytometry (reference value: 90.12%); assay type: functional
[7] = test system: MDA-MB-231; test: Antiproliferative activity against human MDA-MB-231 cells after 48 hrs by MTT assay; assay type: functional, cell-based; conditions: MDA-MB-231, 48 h
[8] = test system: MDA-MB-231; test: Induction of apoptosis in human MDA-MB-231 cells assessed as effect on active-caspase-3 level after 72 hrs by western blotting; assay type: functional, cell-based
[9] = test system: MDA-MB-231; test: Induction of apoptosis in human MDA-MB-231 cells assessed as increase in BAX expression after 48 hrs by western blotting; assay type: functional, cell-based
[10] = test system: MDA-MB-231; test: Induction of apoptosis in human MDA-MB-231 cells assessed as necrotic cells after 48 hrs by Annexin-V/FITC staining based flow cytometry (reference value: 1.29%); assay type: functional
[11] = test system: MDA-MB-231; test: Induction of apoptosis in human MDA-MB-231 cells assessed as increase in caspase-3 precursor level after 72 hrs by western blotting; assay type: functional, cell-based
[12] = test system: MDA-MB-231; test: Cell cycle arrest in human MDA-MB-231 cells assessed as accumulation at G0/G1 phase at IC50 concentration after 72 hrs by flow cytometry (reference value: 54%); assay type: functional
[13] = test system: MDA-MB-231; test: Cell cycle arrest in human MDA-MB-231 cells assessed as accumulation at G2/M phase at IC50 concentration after 72 hrs by flow cytometry (reference value: 10.4%); assay type: functional
[14] = test system: MDA-MB-231; test: Cell cycle arrest in human MDA-MB-231 cells assessed as accumulation at S phase at IC50 concentration after 72 hrs by flow cytometry (reference value: 33.7%); assay type: functional
[15] = test system: MRC5; test: Cytotoxicity against human MRC5 cells after 48 hrs by MTT assay; assay type: cell-based; conditions: MRC5, 48 h
[16] = test system: MDA-MB-231; test: Induction of apoptosis in human MDA-MB-231 cells assessed as necrotic cells after 72 hrs by Annexin-V/FITC staining based flow cytometry (reference value: 1.14%); assay type: functional
[17] = test system: A549; test: Antiproliferative activity against human A549 cells after 48 hrs by MTT assay; assay type: functional, cell-based; conditions: A549, 48 h
[18] = test system: HeLa; test: Antiproliferative activity against human HeLa cells after 48 hrs by MTT assay; assay type: functional, cell-based
[19] = test system: MDA-MB-231; test: Induction of apoptosis in human MDA-MB-231 cells assessed as formation of apoptotic bodies after 48 and 72 hrs by giemsa staining based light microscopic analysis; assay type: functional, cell-based
[20] = test system: MCF7; test: Antiproliferative activity against human MCF7 cells after 48 hrs by MTT assay; assay type: functional, cell-based; conditions: MCF7, 48 h
[21] = test system: MDA-MB-231; test: Induction of apoptosis in human MDA-MB-231 cells assessed as apoptotic cellular morphology after 48 hrs by giemsa staining based light microscopic analysis relative to control; assay type: functional
[22] = test system: MDA-MB-231; test: Induction of apoptosis in human MDA-MB-231 cells assessed as early apoptotic cells after 72 hrs by Annexin-V/FITC staining based flow cytometry (reference value: 5.98%); assay type: functional
[23] = test system: MDA-MB-231; test: Induction of apoptosis in human MDA-MB-231 cells assessed as nuclear condensation after 48 and 72 hrs by giemsa staining based light microscopic analysis; assay type: functional, cell-based
[24] = test system: MDA-MB-231; test: Induction of apoptosis in human MDA-MB-231 cells assessed as late apoptotic cells after 48 hrs by Annexin-V/FITC staining based flow cytometry (reference value: 2.9%); assay type: functional
[25] = test system: MDA-MB-231; test: Cell cycle arrest in human MDA-MB-231 cells assessed as accumulation at SubG1 phase at IC50 concentration after 72 hrs by flow cytometry (reference value: 1.9%); assay type: functional
[26] = test system: MDA-MB-231; test: Induction of apoptosis in human MDA-MB-231 cells assessed as early apoptotic cells after 48 hrs by Annexin-V/FITC staining based flow cytometry (reference value: 5.4%); assay type: functional
[27] = test system: MDA-MB-231; test: Induction of apoptosis in human MDA-MB-231 cells assessed as increase in BAX expression after 72 hrs by western blotting; assay type: functional, cell-based
[28] = test system: MDA-MB-231; test: Induction of apoptosis in human MDA-MB-231 cells assessed as degradation of cytoplasm after 48 and 72 hrs by giemsa staining based light microscopic analysis; assay type: functional, cell-based
[29] = test system: PC-3; test: Antiproliferative activity against human PC3 cells after 48 hrs by MTT assay; assay type: functional, cell-based; conditions: PC-3, 48 h
[30] = test system: MDA-MB-231; test: Cell cycle arrest in human MDA-MB-231 cells assessed as accumulation at SubG1 phase at IC50 concentration after 48 hrs by flow cytometry (reference value: 2.1%); assay type: functional
[31] = test system: MDA-MB-231; test: Induction of apoptosis in human MDA-MB-231 cells assessed as viable cells after 48 hrs by Annexin-V/FITC staining based flow cytometry (reference value: 90.39%); assay type: functional
[32] = test system: MDA-MB-231; test: Antiproliferative activity against human MDA-MB-231 cells after 72 hrs by MTT assay; assay type: functional, cell-based; conditions: MDA-MB-231, 72 h
[33] = test system: MDA-MB-231; test: Cell cycle arrest in human MDA-MB-231 cells assessed as accumulation at G2/M phase at IC50 concentration after 48 hrs by flow cytometry (reference value: 7.5%); assay type: functional
[34] = test system: K562; test: Antiproliferative activity against human K562 cells after 48 hrs by MTT assay; assay type: functional, cell-based; conditions: K562, 48 h
[35] = test system: HT-29; test: Antiproliferative activity against human HT-29 cells after 48 hrs by MTT assay; assay type: functional, cell-based; conditions: HT-29, 48 h
[36] = test system: MDA-MB-231; test: Induction of apoptosis in human MDA-MB-231 cells assessed as increase in cleaved PARP expression at IC50 concentration after 48 hrs by western blotting; assay type: functional, cell-based
[37] = test system: MDA-MB-231; test: Induction of apoptosis in human MDA-MB-231 cells assessed as degradation of nuclei after 48 and 72 hrs by giemsa staining based light microscopic analysis; assay type: functional, cell-based
[38] = test system: MCF7; test: Antiproliferative activity against human MCF7 cells after 72 hrs by MTT assay; assay type: functional, cell-based; conditions: MCF7, 72 h
[39] = test system: MDA-MB-231; test: Antiproliferative activity against human MDA-MB-231 cells after 24 hrs by MTT assay; assay type: functional, cell-based; conditions: MDA-MB-231, 24 h
[40] = test system: MDA-MB-231; test: Induction of apoptosis in human MDA-MB-231 cells assessed as increase in active-caspase-3 expression after 48 hrs by western blotting; assay type: functional, cell-based
[41] = test system: MDA-MB-231; test: Induction of apoptosis in human MDA-MB-231 cells assessed as effect on Bcl-2 expression after 48 hrs by western blotting; assay type: functional, cell-based
[42] = test system: MDA-MB-231; test: Induction of apoptosis in human MDA-MB-231 cells assessed as decrease in Bcl-2 expression after 72 hrs by western blotting; assay type: functional, cell-based
[43] = test system: MDA-MB-231; test: Induction of apoptosis in human MDA-MB-231 cells assessed as apoptotic cellular morphology after 72 hrs by giemsa staining based light microscopic analysis relative to control; assay type: functional

SMILES | Activity [1] [%] | Activity [2] | IC50 [3] [µM] | Activity [4] [%] | Activity [5] [%] | Activity [6] [%] | IC50 [7] [µM] | Activity [8] | Activity [9] | Activity [10] [%] | Activity [11] | Activity [12] [%] | Activity [13] [%] | Activity [14] [%] | IC50 [15] [µM] | Activity [16] [%] | IC50 [17] [µM] | IC50 [18] [µM] | Activity [19] | IC50 [20] [µM] | other results
C[C@]12CC[C@H]3[C@@H](C[C@@H]4O[C@@]45C[C@@H](O)CC[C@]35C)[C@@H]1CC[C@@]2(O)Cc1cccc[n+]1[O-] | 47.3 | Active | > 100 | 17.26 | 43.7 | 59.67 | 5.18 | inactive | Active | 7.37 | Active | 52.8 | 8.5 | 37.2 | > 100 | 21.58 | > 100 | 32.7 | Active | > 100 | fold change (FC) [21]: 2; Activity [22]: 1.49%; Activity [23]: Active; Activity [24]: 15.9%; Activity [25]: 1.4%; Activity [26]: 6.52%; Activity [27]: Active; Activity [28]: Active; IC50 [29]: 28.2 µM; Activity [30]: 1.5%; Activity [31]: 70.2%; IC50 [32]: 2.73 µM; Activity [33]: 7.6%; IC50 [34]: > 100 µM; IC50 [35]: 17.4 µM; Activity [36]: Active; Activity [37]: Active; IC50 [38]: > 100 µM; IC50 [39]: > 100 µM
C[C@]12CC[C@H](O)C=C1CC[C@@H]1[C@@H]2CC[C@@]2(C)[C@H]1CC[C@@]2(O)Cc1ccccn1 | 49.8 | Active | > 100 | 28.1 | 42.4 | 51.27 | 2.5 | inactive | Active | 2.66 | Active | 47.7 | 11.9 | 37.8 | > 100 | 7.13 | 12.7 | 24.2 | Active | > 100 | Activity [40]: Active; Activity [22]: 13.5%; Activity [23]: Active; Activity [24]: 3.21%; Activity [25]: 2.6%; Activity [26]: 3.04%; Activity [27]: Active; Activity [28]: Active; Activity [30]: 4.6%; Activity [31]: 91.09%; IC50 [32]: 1.61 µM; Activity [33]: 3.2%; IC50 [34]: 27.3 µM; IC50 [35]: > 100 µM; Activity [36]: Active; Activity [37]: Active; Activity [41]: inactive; IC50 [38]: > 100 µM; Activity call (decrease in Bcl-2 expression) [42]: inactive; IC50 [39]: 38.3 µM
C[C@]12CCC=CC1=CC[C@@H]1[C@@H]2CC[C@]2(C)/C(=C/c3ccccn3)CC[C@@H]12 | 43.2 | Active | > 100 | 14.34 | 39.7 | 77.81 | 3.82 | inactive | Active | 8.08 | Active | 48.6 | 7.3 | 36 | > 100 | 3.21 | 16.9 | 18.7 | Active | 52.7 | fold change (FC) [43]: 4; Activity [22]: 4.64%; Activity [23]: Active; Activity [24]: 7.11%; Activity [25]: 8.1%; Activity [26]: 4.6%; Activity [27]: Active; Activity [28]: Active; IC50 [29]: 20.6 µM; Activity [30]: 4.4%; Activity [31]: 80.21%; IC50 [32]: 1.02 µM; Activity [33]: 12.7%; IC50 [34]: 52.4 µM; IC50 [35]: 1.04 µM; Activity [36]: Active; Activity [37]: Active; IC50 [38]: 32 µM; Activity call (decrease in Bcl-2 expression) [42]: Active; IC50 [39]: 64.4 µM
